The values that follow come from paper PMC12459184, “Design, synthesis, and bioevaluation of pyrazole-containing tubulin polymerisation inhibitors based on conformational constraint strategy” (Journal of Enzyme Inhibition and Medicinal Chemistry, 2025).

One experiment relates to SGC-7901 cells. As to the kind of experiment: MTT antiproliferative assay, SGC-7901. It is filed as cell-based. The settings on record: Homo sapiens, read-out: IC50 (μM) ± SD SGC-7901. How it is done:
(§1) The in vitro antiproliferative activities of all target compounds 4a−k, 5a−h, and 6a−h were assayed by MTT method using human gastric cancer cell line SGC-7901 and human breast cancer cell line MCF-7.
(§2) All cell lines tested in this study were purchased from the American Type Culture Collection (ATCC, Manassas, VA). SGC-7901 (human gastric adenocarcinoma), HCT-116 (human colon carcinoma), and A549 (human pulmonary carcinoma) cells were cultured in RPMI-1640 medium containing 10% foetal serum (FBS) and 1% penicillin-streptomycin solution (100×). MCF-7 (human breast carcinoma) cells were cultured in DMEM medium containing 10% foetal serum (FBS) and 1% penicillin-streptomycin solution (100×). PC-3 (human prostate carcinoma) cells were cultured in Ham’s F-12K medium containing 10% foetal serum (FBS) and 1% penicillin-streptomycin solution (100×). All cells were cultured at 37 °C in a humidified atmosphere containing 5% CO2.
(§3) Cells grown in logarithmic phase were harvested and seeded onto 96-well cell plates at a density of 4 ∼ 5 × 10^3 cells per well (various from cell type) and were cultured for 24 h. Different concentrations of compounds were added into the wells, and the cells were cultured for another 72 h. The medium was removed, then 20 μL of MTT (5 mg/mL in PBS) was added to each well and the cells were incubated for 4 h. 150 μL of DMSO was added to each well to dissolve the formazan, and the absorbance at 490 nm of each well was measured by a microplate reader. IC50 values were calculated by SPSS software.
On the technique in general: Formazan colour is commonly taken as a measure of viable cells.

The next experiment concerns MCF-7 cells. As to the kind of experiment: MTT antiproliferative assay, MCF-7. It is filed as cell-based. The settings on record: Homo sapiens, read-out: IC50 (μM) ± SD MCF-7. Here is the method:
as §1, §2, §3

The subject of the next experiment is tubulin. As to the kind of experiment: In vitro tubulin polymerisation assay. It is filed as biochemical. The settings on record: 3 μM. Here is the method:
To investigate the effect of compounds 4k and 5a on microtubule system, their tubulin polymerisation inhibition activities were evaluated using in vitro tubulin polymerisation assay.
The BK001 kit used in this test was purchased from Cytoskeleton Inc. (Denver, CO, USA). […] Then the mixtures were transferred to 37 °C and tubulin assembly was monitored (excitation wavelength: 360 nm; emission wavelength: 420 nm) at 1 min intervals for 90 min by a microplate reader.

Setting [1] is: SGC-7901, 72 h drug exposure, MTT assay.
[2] abbreviates: MCF7, 72 h drug exposure, MTT assay.

Where two headings read alike, the source gives them in different places.

One may read the IC50 as the concentration at which inhibition is half-maximal. On to `COc1cc(C(=O)c2nn(-c3ccccc3)cc2N)cc(OC)c1OC` [4a, (4-Amino-1-phenyl-1H-pyrazol-3-yl)(3,4,5-trimethoxyphenyl)methanone], for which the values for the IC50 in the experiment on SGC-7901 cells (setting [1]) and in the experiment with MCF-7 cells (setting [2]) were 0.04 ± 0.003 µM and 0.034 ± 0.005 µM, respectively. Turning to `COc1cc(C(=O)c2nn(-c3cccc(C)c3)cc2N)cc(OC)c1OC` [4b, (4-Amino-1–(3-methylphenyl)-1H-pyrazol-3-yl)(3,4,5-trimethoxyphenyl)methanone], the IC50 in the experiment with SGC-7901 cells (setting [1]) was found to be 0.095 ± 0.011 µM; in the experiment with MCF-7 cells (setting [2]) it was 0.224 ± 0.06 µM. In the case of `COc1cc(C(=O)c2nn(-c3ccc(C)cc3)cc2N)cc(OC)c1OC` [4c, (4-Amino-1–(4-methylphenyl)-1H-pyrazol-3-yl)(3,4,5-trimethoxyphenyl)methanone], the half-maximal inhibitory concentration (IC50) with SGC-7901 cells (setting [1]) is 0.234 ± 0.033 µM; in the experiment with MCF-7 cells (setting [2]), 3.9 ± 0.205 µM. For the compound `COc1cc(C(=O)c2nn(-c3ccccc3F)cc2N)cc(OC)c1OC` [4d, (4-Amino-1–(2-fluorophenyl)-1H-pyrazol-3-yl)(3,4,5-trimethoxyphenyl)methanone], the IC50 was determined as 0.086 ± 0.004 µM in the experiment with SGC-7901 cells (setting [1]) and 0.404 ± 0.036 µM in the experiment with MCF-7 cells (setting [2]). The corresponding values for `COc1cc(C(=O)c2nn(-c3cccc(F)c3)cc2N)cc(OC)c1OC` [4e, (4-Amino-1–(3-fluorophenyl)-1H-pyrazol-3-yl)(3,4,5-trimethoxyphenyl)methanone] are 0.439 ± 0.037 µM and 0.35 ± 0.023 µM. Consider `COc1cc(C(=O)c2nn(-c3ccc(F)cc3)cc2N)cc(OC)c1OC` [4f, (4-Amino-1–(4-fluorophenyl)-1H-pyrazol-3-yl)(3,4,5-trimethoxyphenyl)methanone], for which the IC50 in the experiment on SGC-7901 cells (setting [1]) was 0.092 ± 0.005 µM; with MCF-7 cells (setting [2]) it was 0.162 ± 0.01 µM. For `COc1ccc(-n2cc(N)c(C(=O)c3cc(OC)c(OC)c(OC)c3)n2)cc1` [4g, (4-Amino-1–(4-methoxyphenyl)-1H-pyrazol-3-yl)(3,4,5-trimethoxyphenyl)methanone], the IC50 in the experiment on SGC-7901 cells (setting [1]) was 0.022 ± 0.002 µM; in the experiment on MCF-7 cells (setting [2]), 0.068 ± 0.012 µM.

On to `COc1cc(C(=O)c2nn(-c3ccc(Cl)cc3)cc2N)cc(OC)c1OC` [4h, (4-Amino-1–(4-chlorophenyl)-1H-pyrazol-3-yl)(3,4,5-trimethoxyphenyl)methanone], for which the IC50 with SGC-7901 cells (setting [1]) worked out at 0.318 ± 0.02 µM; in the experiment with MCF-7 cells (setting [2]), 0.098 ± 0.007 µM. `COc1cc(C(=O)c2nn(-c3ccccc3C)cc2N)cc(OC)c1OC` [4i, (4-Amino-1–(2-methylphenyl)-1H-pyrazol-3-yl)(3,4,5-trimethoxyphenyl)methanone]: the IC50 was found to be 0.166 ± 0.004 µM with SGC-7901 cells (setting [1]) and 2.2 ± 0.196 µM with MCF-7 cells (setting [2]). On to `COc1cc(C(=O)c2nn(-c3ccc([N+](=O)[O-])cc3)cc2N)cc(OC)c1OC` [4j, (4-Amino-1–(4-nitrophenyl)-1H-pyrazol-3-yl)(3,4,5-trimethoxyphenyl)methanone], for which the IC50 in the experiment with SGC-7901 cells (setting [1]) stood at 0.04 ± 0.006 µM; with MCF-7 cells (setting [2]), 0.391 ± 0.083 µM. Take `COc1cc(C2=NCC(=O)Nc3cn(-c4cccc(C)c4)nc32)cc(OC)c1OC` [5b, 2–(3-Methylphenyl)-8–(3,4,5-trimethoxyphenyl)-2,6-dihydropyrazolo[4,3-e][1,4]diazepin-5(4H)-one]: the IC50 with SGC-7901 cells (setting [1]) was 0.424 ± 0.076 µM; in the experiment on MCF-7 cells (setting [2]), 0.665 ± 0.052 µM. For the compound `COc1cc(C2=NCC(=O)Nc3cn(-c4ccc(C)cc4)nc32)cc(OC)c1OC` [5c, 2–(4-Methylphenyl)-8–(3,4,5-trimethoxyphenyl)-2,6-dihydropyrazolo[4,3-e][1,4]diazepin-5(4H)-one], the IC50 in the experiment on SGC-7901 cells (setting [1]) was 0.117 ± 0.01 µM; in the experiment with MCF-7 cells (setting [2]) it was 1.38 ± 0.433 µM. As to `COc1cc(C2=NCC(=O)Nc3cn(-c4ccccc4F)nc32)cc(OC)c1OC` [5d, 2–(2-Fluorophenyl)-8–(3,4,5-trimethoxyphenyl)-2,6-dihydropyrazolo[4,3-e][1,4]diazepin-5(4H)-one], the results for the IC50 with SGC-7901 cells (setting [1]) and with MCF-7 cells (setting [2]) were 0.053 ± 0.008 µM and 1.08 ± 0.381 µM, respectively. With `COc1cc(C2=NCC(=O)Nc3cn(-c4cccc(F)c4)nc32)cc(OC)c1OC` [5e, 2–(3-Fluorophenyl)-8–(3,4,5-trimethoxyphenyl)-2,6-dihydropyrazolo[4,3-e][1,4]diazepin-5(4H)-one], the IC50 in the experiment with SGC-7901 cells (setting [1]) is 0.949 ± 0.017 µM; with MCF-7 cells (setting [2]) it was 3.01 ± 0.534 µM. On to `COc1cc(C2=NCC(=O)Nc3cn(-c4ccc(F)cc4)nc32)cc(OC)c1OC` [5f, 2–(4-Fluorophenyl)-8–(3,4,5-trimethoxyphenyl)-2,6-dihydropyrazolo[4,3-e][1,4]diazepin-5(4H)-one], for which the IC50 came out at 0.137 ± 0.025 µM with SGC-7901 cells (setting [1]) and 1.86 ± 0.438 µM in the experiment on MCF-7 cells (setting [2]). As for `COc1ccc(-n2cc3c(n2)C(c2cc(OC)c(OC)c(OC)c2)=NCC(=O)N3)cc1` [5g, 2–(4-Methoxyphenyl)-8–(3,4,5-trimethoxyphenyl)-2,6-dihydropyrazolo[4,3-e][1,4]diazepin-5(4H)-one], the IC50 in the experiment on SGC-7901 cells (SGC-7901, 72 h) amounted to 0.841 ± 0.024 µM; with MCF-7 cells (MCF7, 72 h), 2.86 ± 0.435 µM. With `COc1cc(C2=NCC(=O)Nc3cn(-c4ccc(Cl)cc4)nc32)cc(OC)c1OC` [5h, 2–(4-Chlorophenyl)-8–(3,4,5-trimethoxyphenyl)-2,6-dihydropyrazolo[4,3-e][1,4]diazepin-5(4H)-one], the IC50 with SGC-7901 cells (setting [1]) was 0.772 ± 0.004 µM; in the experiment on MCF-7 cells (setting [2]), 0.857 ± 0.09 µM. With `COc1cc(C2=NNC(=S)Nc3cn(-c4ccccc4)nc32)cc(OC)c1OC` [6a, 2-Phenyl-8–(3,4,5-trimethoxyphenyl)-2,6-dihydropyrazolo[4,3-e][1,2,4]triazepine-5(4H)-thione], the IC50 is 2.74 ± 0.041 µM in the experiment with SGC-7901 cells (setting [1]) and 2.98 ± 0.462 µM in the experiment on MCF-7 cells (setting [2]). In the case of `COc1cc(C2=NNC(=S)Nc3cn(-c4cccc(C)c4)nc32)cc(OC)c1OC` [6b, 2–(3-Methylphenyl)-8–(3,4,5-trimethoxyphenyl)-2,6-dihydropyrazolo[4,3-e][1,2,4]triazepine-5(4H)-thione], the IC50 in the experiment with SGC-7901 cells (setting [1]) is 0.366 ± 0.065 µM; with MCF-7 cells (setting [2]) it was 0.749 ± 0.181 µM. The corresponding values for `COc1cc(C2=NNC(=S)Nc3cn(-c4ccc(C)cc4)nc32)cc(OC)c1OC` [6c, 2–(4-Methylphenyl)-8–(3,4,5-trimethoxyphenyl)-2,6-dihydropyrazolo[4,3-e][1,2,4]triazepine-5(4H)-thione] are 0.151 ± 0.024 µM and 0.123 ± 0.02 µM. `COc1cc(C2=NNC(=S)Nc3cn(-c4ccccc4F)nc32)cc(OC)c1OC` [6d, 2–(2-Fluorophenyl)-8–(3,4,5-trimethoxyphenyl)-2,6-dihydropyrazolo[4,3-e][1,2,4]triazepine-5(4H)-thione]: the figures for the half-inhibitory concentration (IC50) with SGC-7901 cells (setting [1]) and with MCF-7 cells (setting [2]) were 0.087 ± 0.008 µM and 0.398 ± 0.079 µM, respectively. Take `COc1cc(C2=NNC(=S)Nc3cn(-c4cccc(F)c4)nc32)cc(OC)c1OC` [6e, 2–(3-Fluorophenyl)-8–(3,4,5-trimethoxyphenyl)-2,6-dihydropyrazolo[4,3-e][1,2,4]triazepine-5(4H)-thione]: the IC50 in the experiment with SGC-7901 cells (setting [1]) came to 5.12 ± 0.099 µM; in the experiment with MCF-7 cells (setting [2]), 6.9 ± 0.815 µM. The corresponding values for `COc1cc(C2=NNC(=S)Nc3cn(-c4ccc(F)cc4)nc32)cc(OC)c1OC` [6f, 2–(4-Fluorophenyl)-8–(3,4,5-trimethoxyphenyl)-2,6-dihydropyrazolo[4,3-e][1,2,4]triazepine-5(4H)-thione] are 10 ± 0.078 µM and 8.42 ± 0.954 µM.

As for `COc1ccc(-n2cc3c(n2)C(c2cc(OC)c(OC)c(OC)c2)=NNC(=S)N3)cc1` [6g, 2–(4-Methoxyphenyl)-8–(3,4,5-trimethoxyphenyl)-2,6-dihydropyrazolo[4,3-e][1,2,4]triazepine-5(4H)-thione], the IC50 is 2.16 ± 0.098 µM in the experiment on SGC-7901 cells (setting [1]) and 1.57 ± 0.243 µM with MCF-7 cells (setting [2]).

For `COc1cc(C2=NNC(=S)Nc3cn(-c4ccc(Cl)cc4)nc32)cc(OC)c1OC` [6h, 2–(4-Chlorophenyl)-8–(3,4,5-trimethoxyphenyl)-2,6-dihydropyrazolo[4,3-e][1,2,4]triazepine-5(4H)-thione], the IC50 was found to be 0.485 ± 0.03 µM in the experiment on SGC-7901 cells (setting [1]) and 0.662 ± 0.07 µM in the experiment on MCF-7 cells (setting [2]). As for `CC(=O)O[C@H]1C(=O)[C@@]2(C)[C@H]([C@H](OC(=O)c3ccccc3)[C@]3(O)C[C@H](OC(=O)[C@H](O)[C@@H](NC(=O)c4ccccc4)c4ccccc4)C(C)=C1C3(C)C)[C@]1(OC(C)=O)CO[C@@H]1C[C@@H]2O` [paclitaxel, reference compound], in the experiment with tubulin, the “effect on tubulin polymerisation (fluorescence intensity)” value was “enhanced microtubule polymerisation”.
